Test system: HMC1 cells
Assay: In vitro testing of mast cell line HMC-1: histamine release after IgE/anti-IgE, ELISA of supernatant
Format: cell-based
Conditions: calcium ionophore 100 μg/ml, 30 min; for histamine production / release: no IgE/anti-IgE
Protocol: Mast cell lines, i.e. HMC1 cells (provided by Dr Joseph H. Butterfield; Mayo Clinic, Rochester, Minn., USA), were cultured in Isocove's Modified Dulbecco's Medium (IMDM) containing 10% Fetal Bovine Serum (FBS), 2 mM L-glutamine, 50 μM 2-mercaptoethanol, 100 U/mL penicillin and 100 μg/mL streptomycin. Cells were maintained at 37° C. in 5% CO2 in a humidified atmosphere.
Percentage of living cells was determined by trypan blue staining. A 1:10 dilution with 50 μl cell suspension and 450 μl trypan blue was prepared and the number of living and dead cells was counted in a hemocytometer. 10^6 living cells were transferred into safe-lock Eppendorf tubes. Cell suspensions were centrifuged (200 g, 5 min) and supernatant was discarded.
The effect of perilla oil, sesame oil and a combination of perilla oil and sesame oil (in a combination ratio of 1:1) in the vehicle Kolliphor ELP (polyoxyl-35 hydrogenated castor oil) was determined. The positive control Cromolyn in phosphate buffer saline (PBS), the vehicles PBS and ELP, and calcium ionophore A23187 were also tested as controls.
After adding 100 μl IgE (100 ng/ml in PBS/ELP) to the cell pellets, cells were incubated for 12 hours over night, at 37° C. Cells were than incubated for 2 hours, at 37° C. with different concentrations of compounds. After centrifugation (200 g, 5 min), supernatant was discarded and cell pellet was again incubated for 1 hour, at 37° C. with 100 μl anti-IgE (1 μg/ml in PBS/ELP). For the final incubation time of 6 hours, at 37° C., 300 μl HMC1 media was added. Cells were again centrifuged (200 g, 5 min) and supernatant was collected and stored as 300 μl aliquots at −20° C. for ELISA measurements. Cell pellets were resuspended in 100 μl HMC1 media for determining cell viability.
The procedure was slightly different when the compound testing was calcium ionophore A23187. […]
The concentration of histamine in the collected supernatant was determined by ELISA, using a kit obtained from IBL International according to the manufacturer's guidelines. Each sample was measured twice. […]

CNc1ccc2oc(C[C@H]3O[C@@]4(CC[C@H]3C)O[C@H]([C@H](C)C(=O)c3ccc[nH]3)[C@H](C)C[C@H]4C)nc2c1C(=O)O [calcium ionophore, calcium ionophore A23187]
effect on the cells (cell viability): cells were completely destroyed | histamine production / release: highest values of histamine production | histamine production / release (listed as Calcium ionophore): released all histamine

Reference: US11123391B2, “Nasal composition” (INQPHARM GROUP SDN BHD, priority 2015, dated 2021)
